Among the test systems are DMS-114; DMS-273; LXFL 529; HOP-18; KM-20L2; SNB-78; XF498; BT-549; RXF 631.
Holding throughout (experiment): NCI tumour cell line growth inhibition, 48 h

The source of these data is ChEMBL document CHEMBL1201862, “PubChem BioAssay data set” (2004).

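Test compounds were applied to cells in 96-well plates for 48 hours at 5 doses. GI50 is the concentration that inhibits growth by half.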 The source made the active and inactive calls. Rule as the data show it: active = GI50 up to about 1.1 µM and inactive = higher.

For the molecule `O=C1CCCCCCCCCCOC(=O)CCCCCCCCCCO1`, the GI50 with DMS-114 is > 100 µM (inactive); in the test with DMS-273, > 100 µM (inactive); in the test on LXFL 529, > 100 µM (inactive); with HOP-18, > 100 µM (inactive); in the test on KM-20L2, > 10 µM (inactive); with SNB-78 it was > 100 µM (inactive).

For `CC(=O)O[C@H]1CC[C@@]2(C)[C@H](CC[C@@H]3[C@@H]2CC[C@]2(C)[C@@H](c4ccc(=O)oc4)C[C@H]4O[C@]342)C1`, the GI50 is 0.119 µM (active) in the test with DMS-114; 0.458 µM (active) in the test on DMS-273; 0.423 µM (active) with HOP-18; 1.3 µM (inactive) in the test on XF498; 1.38 µM (inactive) in the test on KM-20L2; 0.404 µM (active) in the test on SNB-78.

Take `CC(NNC(=O)c1cc[n+]([BH2-]C#N)cc1)c1ccc(Cl)c(Cl)c1` (configuration not stated): the GI50 in the test on BT-549 is 27.9 µM (inactive).

For `c1ccc2c(c1)c1c(n2CCOCCCN2CCCCC2)CCCC1`, the GI50 in the test on BT-549 is 15.5 µM (inactive).

Turning to `Cn1c(=O)n2n(c1=O)C(C)(C13CC4CC(CC(C4)C1)C3)C13CC4CC(CC1C4)CC23` (configuration not stated), the GI50 in the test with BT-549 is > 100 µM (inactive).

On to `O=C1CC2(CCC(O)(c3ccc4ccccc4c3)C(C(=O)c3ccc4ccccc4c3)C2)C(=O)c2ccccc2N1` (configuration not stated), for which the GI50 in the test on BT-549 is > 100 µM (inactive).

As for `COC(=O)C(NC(=O)OC(C)(C)C)P(=O)(OC)OC` (configuration not stated), the GI50 in the test on BT-549 is > 100 µM (inactive).

Regarding `COc1ccc(C2C3CCc4ccccc4C3=NN2S(=O)(=O)c2cccc(C(=O)O)c2OC)cc1` (configuration not stated), the GI50 in the test on BT-549 is 33.3 µM (inactive).

For `COC12OC3(C4OC41)C(C(=O)O[C@H]3CO[Si](C)(C)C(C)(C)C)C2C(=O)Oc1ccccc1` (some centres not stated), the GI50 in the test with BT-549 was 0.991 µM (active).

Consider `CC(=O)NC1=C(C)C(=O)c2c(nc3n2CCC3OC(=O)c2ccccc2)C1=O` (configuration not stated), for which the GI50 in the test with DMS-114 was 0.805 µM (active); in the test with DMS-273, 2.07 µM (inactive); with LXFL 529 it was 1.56 µM (inactive); in the test with SNB-78, 2.71 µM (inactive).

Regarding `Nc1ccc2c(c1)C1=NNC(=O)CC1C2` (configuration not stated), the GI50 with DMS-114 was > 100 µM (inactive); in the test with DMS-273, > 100 µM (inactive); in the test on HOP-18, > 77.6 µM (inactive); with XF498, > 100 µM (inactive); in the test with KM-20L2, > 100 µM (inactive); in the test with SNB-78 it was > 100 µM (inactive).

Turning to `Cc1c(Cc2ccccc2)n(COCCCO)c(=O)[nH]c1=O`, the GI50 in the test on BT-549 is > 100 µM (inactive).

In the case of `Cc1nc2ccccc2c(=O)n1CC(=O)O`, the GI50 with DMS-114, in the test on DMS-273, in the test with HOP-18, in the test on XF498, in the test with KM-20L2 and in the test on SNB-78 was > 100 µM (inactive) each time.

For `CC(C)N(C)C(=O)C12C3C4C1C1C2C3C41C#N` (configuration not stated), in the test on BT-549, the GI50 is > 100 µM (inactive).

On to `O=C(c1ccccc1)c1cc(Cl)ccc1NCn1nnc2ccccc21`, for which the GI50 with DMS-114 was 31.5 µM (inactive); in the test with DMS-273, 39.1 µM (inactive); with LXFL 529 it was 98.9 µM (inactive); with HOP-18, > 100 µM (inactive); in the test with XF498, > 100 µM (inactive); in the test with KM-20L2, 60.4 µM (inactive).

For `O=S(O)CCCSSSCCCS(=O)O`, the GI50 in the test on DMS-114, with LXFL 529, in the test with XF498, in the test with KM-20L2, in the test with SNB-78 and in the test with RXF 631 was > 100 µM (inactive) in each case.

As to `Cc1cc(S(=O)(=O)NC2=NCc3nc4ccccc4n32)c(S)cc1Cl`, the GI50 in the test with BT-549 is 23 µM (inactive).

Consider `CC(C)CC1c2[nH]c3ccccc3c2C[C@H]2C(=O)NC(COC(C)(C)C)C(=O)N12` (some centres not stated), for which the GI50 in the test on BT-549 is 23.6 µM (inactive).

As to `C[N+](C)(C)/C=N\c1cccc2c1CCCC2`, the GI50 in the test with BT-549 is 57.1 µM (inactive).

With `Cc1nc(N(CCO)CCO)c2sc(=S)n(-c3ccccc3)c2n1`, the GI50 in the test with LXFL 529 and in the test with HOP-18 was > 100 µM (inactive) each time.

With `COc1ccc(-c2c(-c3ccccc3)c(C)c3ccccn23)cc1`, the GI50 in the test with BT-549 is > 100 µM (inactive).

For the molecule `N#Cc1c(-c2ccccc2)c(CN2CCCCC2)c(=O)n2c1[nH]c1ccccc12`, in the test with BT-549, the GI50 is 35 µM (inactive).

As to `O=C1C2c3[nH]c4ccccc4c3C3CCSCC3C2C(=O)N1c1ccccc1` (configuration not stated), the GI50 in the test on DMS-273, with LXFL 529, with XF498, in the test with KM-20L2 and in the test with SNB-78 was > 100 µM (inactive) in each case.

Regarding `C=C1CC(OC)(C(OC)C(=O)N[C@H]2OCO[C@H]3C2O[C@H](C[C@@H](COC)OC)C(C)(C)C3OC)O[C@H](C)[C@@H]1C` (some centres not stated), the GI50 with DMS-114 is 1.22 µM (inactive); with DMS-273, 0.875 µM (active); with HOP-18 it was 2.08 µM (inactive); in the test on XF498 it was 0.604 µM (active); in the test on KM-20L2, 0.931 µM (active); in the test on SNB-78, 1.11 µM (active).

As to `C=C(/C=C/C=C(/CCC=C(C)C)COC(C)=O)[C@@H]1CC[C@]2([C@H](CCCO)/C(=C(/C)C=O)CC[C@]2(C)O)[C@@H]1O`, the GI50 is 14.2 µM (inactive) in the test with DMS-114; 2.27 µM (inactive) in the test with DMS-273; 11.5 µM (inactive) in the test with HOP-18; 14.4 µM (inactive) in the test with KM-20L2; > 10 µM (inactive) with SNB-78.

As to `COc1ccc(NC(=S)c2ccc([N+](=O)[O-])o2)cc1`, the GI50 in the test on BT-549 is 1.85 µM (inactive).

Regarding `Cc1cc2nc3c(C(O)CO)nn(-c4ccccc4)c3nc2cc1C` (configuration not stated), the GI50 in the test with BT-549 was 18.8 µM (inactive).

`CC12CCC3C(CCC4CC(OC(=O)Cc5ccc(N(CCCl)CCCl)cc5)CCC43C)C1CCC(=O)N2` (configuration not stated): the GI50 in the test on DMS-114 is 12.8 µM (inactive); in the test on DMS-273 it was 12.9 µM (inactive); in the test with LXFL 529, 16.2 µM (inactive); with HOP-18 it was 17.3 µM (inactive); with XF498, 16.5 µM (inactive); in the test on KM-20L2, 17.4 µM (inactive). The GI50 in the test with SNB-78 is 24.4 µM (inactive).

For the molecule `Cc1nc2c(nc1Cl)nc(Oc1ccc(Cl)cc1)c1ccccc12`, the GI50 with DMS-114 was 47.5 µM (inactive); with DMS-273, 46.5 µM (inactive); with LXFL 529, 51.4 µM (inactive); in the test with XF498, 73.3 µM (inactive); with KM-20L2, > 100 µM (inactive); in the test on SNB-78, 59.4 µM (inactive). Moreover, the GI50 with RXF 631 was > 100 µM (inactive).

Turning to `O=C1CCCC2=C1CC1=C(CCCC1=O)N2c1cccc([N+](=O)[O-])c1`, the GI50 with BT-549 was > 100 µM (inactive).

Regarding `CN(C)CCCn1c(-c2ccc(Br)cc2)cs/c1=N\c1ccccc1`, the GI50 in the test on BT-549 is 15.4 µM (inactive).

On to `COCCN(C(=O)c1ccccc1)C1CCC(=O)c2[nH]c3ccccc3c21` (configuration not stated), for which the GI50 in the test with BT-549 is 2.7 µM (inactive).

Consider `COC1CC(C)(NC(=O)C(F)(F)F)C2OC(c3ccccc3)OCC2O1` (configuration not stated), for which the GI50 in the test on BT-549 was > 100 µM (inactive).
